Experimental data published in US11834663B2, “Fibrotic treatment” (Monash University, priority 2015, dated 2023).

Legend:
[1] = system: kidneys of aged (18-22 month old) WT mice; experiment: Reversal of age-induced kidney fibrosis in aged WT mice; format: in vivo, mouse
Protocol: There are 8 different sets of in vivo experiments in this study: • A) Phenotypic characterisation of the heart and blood vessels in global IRAP knockout mice and their WT controls treated for 4 weeks with Angiotensin (Ang) II (800 ng/kg/min; s.c.) where mouse hearts and blood vessels were compared to tissue obtained from young WT and IRAP^−/− mice treated with saline. • B) Prevention of Ang II-induced changes in the cardiovascular system following IRAP inhibitor treatment. In the prevention model, WT mice were treated with Ang II (800 ng/kg/min; s.c.)±the IRAP inhibitor (HFI-419; 500 ng/kg/min for 28 days) or HFI-vehicle (1 DMSO:3 HBC). • C) Phenotypic characterisation of the aged heart, kidney and blood vessels in the global IRAP knockout mice where aged WT and IRAP^−/− mouse hearts, kidneys and blood vessels were compared to tissue obtained from young WT and IRAP^−/− mice. • D) Reversal of the age-induced changes in the cardiovascular system following IRAP inhibitor treatment. […]
To measure collagen deposition, frozen sections of heart, kidney or aorta (all 5 μm thickness) were air dried for 10 minutes and were brought through 3 times xylene (2 minutes each), and 3 times absolute alcohol washes before being rinsed in tap H2O for 30 seconds. […] Images were taken under ×20 magnification, using bright field (Olympus, BX51) and circularized polarized light microscopy (DM IRB, Leica) while percentage of positive interstitial collagen staining per total field of view was quantified using ImageJ 1.46 software (Java, NIH), and averaged out from a total of eight views as the final percentage collagen content in a particular animal. […]

[2] = system: transverse heart sections from Ang II-infused WT mice; experiment: Angiotensin II infusion prevention model: cardiac hypertrophy, fibrosis, ROS and inflammatory markers; format: in vivo, mouse; settings: Ang II + HFI-419, 4 weeks
Protocol: There are 8 different sets of in vivo experiments in this study: • A) Phenotypic characterisation of the heart and blood vessels in global IRAP knockout mice and their WT controls treated for 4 weeks with Angiotensin (Ang) II (800 ng/kg/min; s.c.) where mouse hearts and blood vessels were compared to tissue obtained from young WT and IRAP^−/− mice treated with saline. • B) Prevention of Ang II-induced changes in the cardiovascular system following IRAP inhibitor treatment. In the prevention model, WT mice were treated with Ang II (800 ng/kg/min; s.c.)±the IRAP inhibitor (HFI-419; 500 ng/kg/min for 28 days) or HFI-vehicle (1 DMSO:3 HBC). • C) Phenotypic characterisation of the aged heart, kidney and blood vessels in the global IRAP knockout mice where aged WT and IRAP^−/− mouse hearts, kidneys and blood vessels were compared to tissue obtained from young WT and IRAP^−/− mice. • D) Reversal of the age-induced changes in the cardiovascular system following IRAP inhibitor treatment. In the reversal model, aged WT mice were treated with either saline, IRAP inhibitor (HFI-419 at 500 ng/kg/min; compound 1 at 500 ng/kg/min; compound 2 at 50 ng/kg/min) or HFI-vehicle (1 DMSO: 3 HBC) for 4 weeks. • E) Prevention of ischemic-reperfusion injury in isolated hearts taken from aged global IRAP knockout mice and aged IRAP inhibitor (HFI-419 at 500 ng/kg/min; s.c.) treated WT mice compared to age-matched vehicle-treated (1 DMSO:3 HBC; s.c.) WT controls. • F) Phenotypic characterization of cardiac function using echocardiography in the aged global IRAP knockout mice compared to aged and young WT mice. • G) Phenotypic characterization of liver steatosis in IRAP knockout mice in a high fat diet (HFD) model. • H) Reversal of the salt-induced fibrosis in the liver following IRAP inhibitor treatment.
To measure collagen deposition, frozen sections of heart, kidney or aorta (all 5 μm thickness) were air dried for 10 minutes and were brought through 3 times xylene (2 minutes each), and 3 times absolute alcohol washes before being rinsed in tap H2O for 30 seconds. Staining with an optimal concentration of picrosirius red (in this instance 0.05% picrosirius red diluted in saturated picric acid) was performed and left for an hour. Sections were then rinsed in water and differentiated in 0.01 M HCl for 2 minutes, followed by dehydration via 3 times absolute alcohol washes. Then, slides were brought through 3 times xylene washes before being cover slipped according to standard histological techniques using DPX as the mounting medium. Images were taken under ×20 magnification, using bright field (Olympus, BX51) and circularized polarized light microscopy (DM IRB, Leica) while percentage of positive interstitial collagen staining per total field of view was quantified using ImageJ 1.46 software (Java, NIH), and averaged out from a total of eight views as the final percentage collagen content in a particular animal.
Ventricular weight (VW) was compared to the body weight (BW) as a ratio of VW:BW (mg/g), as well as comparison of VW to tibial length (TL) in as a ratio of VW:TL (mg/mm) respectively. The hearts that were embedded in OCT and frozen were transversely sectioned in a cryostat at 5 μm thickness, and stained with Hematoxylin and Eosin (Amber Scientific) for morphological examination of cell structure. The average of 100 cardiomyocytes per heart section was performed under 60× magnification and analyzed using Image J.
Immunostaining was performed on either 5 μm thick transverse frozen heart sections or 5 μm thick frozen thoracic aortic. These sections were air dried and fixed in ice-cold acetone for approximately 15 minutes before washing with 0.01M PBS buffer (3×10 minutes). Sections were then incubated with 10% goat serum in 0.01M PBS for 30 minutes to reduce non-specific binding. […]

With `CCOC(=O)C1=C(NC(C)=O)Oc2cc(O)ccc2C1c1cccnc1` (stereo not drawn) [HFI-419] the “IRAP expression in kidneys” value ([1]; aged WT mice, HFI-419 500 ng/kg/min s.c., 4 weeks, FIG. 22b) was “tended to be decreased”, the “αSMA-positive myofibroblast expression in kidneys” value ([1]; aged WT mice, HFI-419 4 weeks vs vehicle, FIG. 24b) was “trend towards reduced” and the “age-induced collagen deposition in kidney (interstitial fibrosis, picrosirius red)” value ([1]; ~20 month old WT mice, HFI-419 500 ng/kg/min s.c., 4 weeks, FIG. 23) was “completely reverse”. For the same molecule, the “Ang II-mediated increase in cardiac hypertrophy (cardiomyocyte cross-sectional area, H&E)” value ([2]; FIG. 5a) was “prevented”, the “interstitial collagen expression in heart (picrosirius red, brightfield)” value ([2]; FIG. 5b) was “significantly decreased” and the “protein expression of TGF-β1 in heart (western blot)” value ([2]; FIG. 6) was “decreased”. The “vimentin staining in heart (marker for fibroblast expression)” value ([2]; FIG. 6) was “no change”, the “α-SMA staining in heart (marker for myofibroblast expression)” value ([2]; FIG. 6) was “decreased” and the “Ang II-induced increase in cardiac superoxide generation (DHE)” value ([2]; FIG. 7) was “prevented”. For the same molecule, the “ICAM-1 expression and protein content in heart” value ([2]; FIG. 7) was “decreased”, the “MCP-1 expression in heart” value ([2]; FIG. 7) was “decreasing” and the “P-IκBα expression in heart” value ([2]; FIG. 7) was “decreased”. The “expression of NOX-2 in heart” value ([2]; FIG. 7) was “no effect”, the “macrophage (F4/80) expression in heart” value ([2]; FIG. 7) was “decreasing” and the “perivascular expression of TGF-β1 in heart” value ([2]; immunofluorescence, FIG. 6) was “decreased”.
